Data as given in PubChem BioAssay (NCI).
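Step 1: Grow cells in 96-well plates. Step 2: Expose to compound for 48 hours at 5 concentrations. Step 3: Interpolate endpoints linearly; if unreached, use highest concentration. GI50: concentration for 50% inhibition of growth. TGI: concentration producing complete growth inhibition.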

Assays:
Test in all cases: inhibition of tumour cell growth, NCI panel, 48 h
786-0 renal = system: 786-0 renal
A498 renal = system: A498 renal
A549 NSCLC = system: A549 NSCLC
ACHN renal = system: ACHN renal
BT-549 breast = system: BT-549 breast
CAKI-1 renal = system: CAKI-1 renal
COLO 205 colon = system: COLO 205 colon
DU-145 prostate = system: DU-145 prostate
EKVX NSCLC = system: EKVX NSCLC
HCC-2998 colon = system: HCC-2998 colon
HCT-116 colon = system: HCT-116 colon
HCT-15 colon = system: HCT-15 colon
HL-60(TB) leukemia = system: HL-60(TB) leukemia
HOP-62 NSCLC = system: HOP-62 NSCLC
HS 578T breast = system: HS 578T breast
HT29 colon = system: HT29 colon
IGROV1 ovarian = system: IGROV1 ovarian
K-562 leukemia = system: K-562 leukemia
KM12 colon = system: KM12 colon
LOX IMVI melanoma = system: LOX IMVI melanoma
M14 melanoma = system: M14 melanoma
MALME-3M melanoma = system: MALME-3M melanoma
MCF7 breast = system: MCF7 breast
MDA-MB-231 breast = system: MDA-MB-231 breast
MDA-MB-435 = system: MDA-MB-435
MOLT-4 leukemia = system: MOLT-4 leukemia
NCI-H226 lung = system: NCI-H226 lung
NCI-H23 lung = system: NCI-H23 lung
NCI-H460 lung = system: NCI-H460 lung
NCI-H522 lung = system: NCI-H522 lung
NCI/ADR-RES ovarian = system: NCI/ADR-RES ovarian
OVCAR-3 ovarian = system: OVCAR-3 ovarian
OVCAR-4 ovarian = system: OVCAR-4 ovarian
OVCAR-5 ovarian = system: OVCAR-5 ovarian
OVCAR-8 ovarian = system: OVCAR-8 ovarian
RXF 393 renal = system: RXF 393 renal
SF-268 CNS = system: SF-268 CNS
SF-295 CNS = system: SF-295 CNS
SF-539 CNS = system: SF-539 CNS
SK-MEL-2 melanoma = system: SK-MEL-2 melanoma
SK-MEL-28 melanoma = system: SK-MEL-28 melanoma
SK-MEL-5 melanoma = system: SK-MEL-5 melanoma
SK-OV-3 ovarian = system: SK-OV-3 ovarian
SN12C renal = system: SN12C renal
SNB-19 CNS = system: SNB-19 CNS
SNB-75 CNS = system: SNB-75 CNS
SR leukemia = system: SR leukemia
SW-620 colon = system: SW-620 colon
T-47D breast = system: T-47D breast
TK-10 renal = system: TK-10 renal
U251 CNS = system: U251 CNS
UACC-257 melanoma = system: UACC-257 melanoma
UACC-62 melanoma = system: UACC-62 melanoma
UO-31 renal = system: UO-31 renal

CC#CC#Cc1cccc(=O)o1
GI50 (786-0 renal): 13.6 µM | TGI (786-0 renal): 28.9 µM | GI50 (A498 renal): 16.5 µM | TGI (A498 renal): 30 µM | GI50 (A549 NSCLC): 14.6 µM | TGI (A549 NSCLC): 31.5 µM | GI50 (ACHN renal): 8.15 µM | TGI (ACHN renal): 20.6 µM | GI50 (BT-549 breast): 2.37 µM | TGI (BT-549 breast): 10.1 µM | GI50 (CAKI-1 renal): 2.1 µM | TGI (CAKI-1 renal): 4.78 µM | GI50 (COLO 205 colon): 3.85 µM | TGI (COLO 205 colon): 14.4 µM | GI50 (DU-145 prostate): 15.7 µM | TGI (DU-145 prostate): 29.2 µM | GI50 (EKVX NSCLC): 3.14 µM | TGI (EKVX NSCLC): 16.2 µM | GI50 (HCC-2998 colon): 16 µM | TGI (HCC-2998 colon): 29.5 µM | GI50 (HCT-116 colon): 2.1 µM | TGI (HCT-116 colon): 5.79 µM | GI50 (HCT-15 colon): 8.08 µM | TGI (HCT-15 colon): 30.2 µM | GI50 (HL-60(TB) leukemia): 2.91 µM | TGI (HL-60(TB) leukemia): 18.1 µM | GI50 (HOP-62 NSCLC): 13.8 µM | TGI (HOP-62 NSCLC): 27 µM | GI50 (HS 578T breast): 10.2 µM | TGI (HS 578T breast): 81.4 µM | GI50 (HT29 colon): 4.17 µM | TGI (HT29 colon): 14.6 µM | GI50 (IGROV1 ovarian): 4.31 µM | TGI (IGROV1 ovarian): 19.8 µM | GI50 (K-562 leukemia): 0.0136 µM | TGI (K-562 leukemia): > 100 µM | GI50 (KM12 colon): 4.87 µM | TGI (KM12 colon): 17 µM | GI50 (LOX IMVI melanoma): 10.7 µM | TGI (LOX IMVI melanoma): 24.1 µM | GI50 (M14 melanoma): 9.52 µM | TGI (M14 melanoma): 24.3 µM | GI50 (MALME-3M melanoma): 2.8 µM | TGI (MALME-3M melanoma): 14.1 µM | GI50 (MCF7 breast): 3.4 µM | TGI (MCF7 breast): 18.4 µM | GI50 (MDA-MB-231 breast): 10.8 µM | TGI (MDA-MB-231 breast): 24.7 µM | GI50 (MDA-MB-435): 3.82 µM | TGI (MDA-MB-435): 22.7 µM | GI50 (MOLT-4 leukemia): 1.14 µM | TGI (MOLT-4 leukemia): > 100 µM | GI50 (NCI-H226 lung): 21 µM | TGI (NCI-H226 lung): 96.1 µM | GI50 (NCI-H23 lung): 5.97 µM | TGI (NCI-H23 lung): 21.8 µM | GI50 (NCI-H460 lung): 13.5 µM | TGI (NCI-H460 lung): 29 µM | GI50 (NCI-H522 lung): 3.67 µM | TGI (NCI-H522 lung): 16.3 µM | GI50 (NCI/ADR-RES ovarian): 18.2 µM | TGI (NCI/ADR-RES ovarian): > 100 µM | GI50 (OVCAR-3 ovarian): 3.34 µM | TGI (OVCAR-3 ovarian): 10.2 µM | GI50 (OVCAR-4 ovarian): 13 µM | TGI (OVCAR-4 ovarian): 25.6 µM | GI50 (OVCAR-5 ovarian): 24.2 µM | TGI (OVCAR-5 ovarian): 40 µM | GI50 (OVCAR-8 ovarian): 4.89 µM | TGI (OVCAR-8 ovarian): > 100 µM | GI50 (RXF 393 renal): 2.48 µM | TGI (RXF 393 renal): 6.63 µM | GI50 (SF-268 CNS): 4.29 µM | TGI (SF-268 CNS): 18.1 µM | GI50 (SF-295 CNS): 12.8 µM | TGI (SF-295 CNS): 26.3 µM | GI50 (SF-539 CNS): 5.63 µM | TGI (SF-539 CNS): 26.6 µM | GI50 (SK-MEL-2 melanoma): 3.73 µM | TGI (SK-MEL-2 melanoma): 34.3 µM | GI50 (SK-MEL-28 melanoma): 4.25 µM | TGI (SK-MEL-28 melanoma): 16.7 µM | GI50 (SK-MEL-5 melanoma): 11.3 µM | TGI (SK-MEL-5 melanoma): 26.7 µM | GI50 (SK-OV-3 ovarian): 20.5 µM | TGI (SK-OV-3 ovarian): 56.4 µM | GI50 (SN12C renal): 26.8 µM | TGI (SN12C renal): > 100 µM | GI50 (SNB-19 CNS): 16.9 µM | TGI (SNB-19 CNS): 30.5 µM | GI50 (SNB-75 CNS): 4.75 µM | TGI (SNB-75 CNS): 21 µM | GI50 (SR leukemia): 1.38 µM | TGI (SR leukemia): 7.2 µM | GI50 (SW-620 colon): 10 µM | TGI (SW-620 colon): 24.9 µM | GI50 (T-47D breast): 4.35 µM | TGI (T-47D breast): 18.7 µM | GI50 (TK-10 renal): 5.08 µM | TGI (TK-10 renal): 18.3 µM | GI50 (U251 CNS): 11.2 µM | TGI (U251 CNS): 24.9 µM | GI50 (UACC-257 melanoma): 8.58 µM | TGI (UACC-257 melanoma): 23.3 µM | GI50 (UACC-62 melanoma): 2.98 µM | TGI (UACC-62 melanoma): 14.6 µM | GI50 (UO-31 renal): 10.2 µM | TGI (UO-31 renal): 22.6 µM
